# Values of other authors, collected in US20230037660A1, “METHODS OF TREATING VASCULAR LESIONS AND MALFORMATIONS” (priority 2019, published 2023).
# Tested on: diseased tissue / blood vessels
# Conditions: ICG alone, not conjugated
smiles,measurement,value
"CC1(C)C(/C=C/C=C/C=C/C=C2\N(CCCCS(=O)(=O)O)c3ccc4ccccc4c3C2(C)C)=[N+](CCCCS(=O)(=O)[O-])c2ccc3ccccc3c21 [ICG, indocyanine green]",Fluorescence behaviour of the dye alone after injection,transiently lights up blood vessels immediately after injection
